In US20250129069A1, “TRIAZOLO WRN INHIBITORS” (Nimbus Wadjet, Inc., priority 2023, published 2025):
Like-named read-outs stand apart in the source and are kept apart here.

Assays:
[1] = system: p21 induction in HCT 116 cells; experiment: p21 induction in cells (In-Cell Western, p21/GAPDH ratio); format: cell-based; conditions: 24 h compound incubation, read-out: p21_EC50
Outline: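 EC50 values come from nonlinear fits of percent activation, defined by the 800/700 nm p21-to-GAPDH ratio scaled between DMSO (low) and internal WRN inhibitor (high) controls. In-Cell Western read after 24 h compound exposure of HCT 116 cells at 37° C. Duplicate 11-point series, 2-fold steps, usually starting at 10 μM.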

[2] = target: human Werner helicase (WRN, amino acids 517-1235 with L1074F point mutation) (Homo sapiens (Human), UniProt Q14191, L1074F); experiment: WRN (BV08) ADP-Glo assay; format: biochemical; conditions: human WRN (aa 517-1235, L1074F), read-out: ADP-Glo_hWRN_IC50
human Werner helicase (WRN, amino acids 517-1235 with L1074F point mutation), sequence (Q14191 other isoform, or with tags, fused parts or gaps L1074F (already in the parent)): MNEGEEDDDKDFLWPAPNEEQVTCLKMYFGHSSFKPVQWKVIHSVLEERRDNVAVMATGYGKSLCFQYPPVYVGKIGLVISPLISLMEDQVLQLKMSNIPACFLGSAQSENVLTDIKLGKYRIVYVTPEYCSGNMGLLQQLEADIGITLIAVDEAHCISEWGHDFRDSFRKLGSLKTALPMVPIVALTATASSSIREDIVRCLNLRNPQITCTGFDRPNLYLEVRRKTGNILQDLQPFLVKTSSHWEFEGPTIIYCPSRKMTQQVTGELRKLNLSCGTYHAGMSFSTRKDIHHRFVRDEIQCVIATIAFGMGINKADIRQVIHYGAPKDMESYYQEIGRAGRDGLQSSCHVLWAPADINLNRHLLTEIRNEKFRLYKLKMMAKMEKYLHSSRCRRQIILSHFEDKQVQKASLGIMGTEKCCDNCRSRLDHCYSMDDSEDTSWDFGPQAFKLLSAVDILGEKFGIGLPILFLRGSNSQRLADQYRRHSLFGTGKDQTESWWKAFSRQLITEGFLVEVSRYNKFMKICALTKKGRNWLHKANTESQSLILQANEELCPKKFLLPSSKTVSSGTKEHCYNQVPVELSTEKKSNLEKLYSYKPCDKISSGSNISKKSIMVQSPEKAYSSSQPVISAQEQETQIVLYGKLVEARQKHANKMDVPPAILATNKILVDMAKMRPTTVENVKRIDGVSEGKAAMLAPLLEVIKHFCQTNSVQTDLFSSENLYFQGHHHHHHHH
Outline: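 ADP-Glo luminescence read after 60 min, 25 °C reaction of 0.15 nM WRN (517-1235, L1074F, Sf9-expressed, tag removed) with 0.1 nM DNA duplex and 5 μM ATP, following 15 min compound preincubation; 20 mM Bicine pH 7.5, 1% DMSO. IC50 from 3- or 4-parameter fit of % inhibition.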

| SMILES | EC50 ([1]; Homo sapiens) [nM] | IC50 [2] [nM] | EC50 [1] [nM] |
| --- | --- | --- | --- |
| CCc1c(N2CCN(C(=O)c3c(OC)ncc(C(F)F)c3O)CC2)c(=O)c2nn(-c3ccnc(OC)c3)nc2n1CC(=O)NC12CC(C(C)C)(C1)C2 [Compound I-51, 2-(6-{4-[5-(difluoromethyl)-4-hydroxy-2-methoxypyridine-3-carbonyl]piperazin-1-yl}-5-ethyl-2-(2-methoxypyridin-4-yl)-7-oxo-2H,4H,7H-[1,2,3]triazolo[4,5-b]pyridin-4-yl)-N-[3-(propan-2-yl)bicyclo[1.1.1]pentan-1-yl]acetamide] | 2000 to 5000 | 5 to 50 |  |
| CCc1c(N2CCN(C(=O)c3ncnc(C)c3O)[C@H]3CC[C@@H]32)c(=O)c2nn(-c3ccnc(OC)c3)nc2n1CC(=O)NC1CC2(C1)CC(F)(F)C2 [Compound I-70, N-{6,6-difluorospiro[3.3]heptan-2-yl}-2-{5-ethyl-6-[(1S,6S)-5-(5-hydroxy-6-methylpyrimidine-4-carbonyl)-2,5-diazabicyclo[4.2.0]octan-2-yl]-2-(2-methoxypyridin-4-yl)-7-oxo-2H,4H,7H-[1,2,3]triazolo[4,5-b]pyridin-4-yl}acetamide] | 500 to 2000 | 5 to 50 |  |
| CCc1c(N2CCN(C(=O)c3ncnc(C)c3O)CC2)c(=O)c2nn(C3=CCOCC3)nc2n1CC(=O)Nc1ccc(C(F)(F)F)cc1Cl [Compound I-144, N-[2-chloro-4-(trifluoromethyl)phenyl]-2-[2-(3,6-dihydro-2H-pyran-4-yl)-5-ethyl-6-[4-(5-hydroxy-6-methylpyrimidine-4-carbonyl)piperazin-1-yl]-7-oxo-2H,4H,7H-[1,2,3]triazolo[4,5-b]pyridin-4-yl]acetamide] | ≤ 500 | 5 to 50 |  |
| CCc1c(N2CCN(C(=O)c3cnccc3OC)[C@H]3CC[C@@H]32)c(=O)c2nn(C3=CCOCC3)nc2n1CC(=O)NC12CC(C(C)C)(C1)C2 [Compound I-203, 2-[2-(3,6-dihydro-2H-pyran-4-yl)-5-ethyl-6-[(1S,6S)-5-(4-methoxypyridine-3-carbonyl)-2,5-diazabicyclo[4.2.0]octan-2-yl]-7-oxo-2H,4H,7H-[1,2,3]triazolo[4,5-b]pyridin-4-yl]-N-[3-(propan-2-yl)bicyclo[1.1.1]pentan-1-yl]acetamide] | 500 to 2000 | 5 to 50 |  |
| CCc1c(N2CCN(C(=O)c3ccccc3OC)[C@H]3CC[C@@H]32)c(=O)c2nn(C3=CCOCC3)nc2n1CC(=O)NC12CC(C(C)C)(C1)C2 [Compound I-53, 2-[2-(3,6-dihydro-2H-pyran-4-yl)-5-ethyl-6-[(1S,6S)-5-(2-methoxybenzoyl)-2,5-diazabicyclo[4.2.0]octan-2-yl]-7-oxo-2H,4H,7H-[1,2,3]triazolo[4,5-b]pyridin-4-yl]-N-[3-(propan-2-yl)bicyclo[1.1.1]pentan-1-yl]acetamide] | ≤ 500 | 5 to 50 |  |
| CCc1c(N2CCN(C(=O)c3c(OC)ncc(C4CCOC4)c3O)CC2)c(=O)c2nn(-c3ccnc(OC)c3)nc2n1CC(=O)NC12CC(C(C)C)(C1)C2 (stereo not shown) [Compound I-75, 2-(5-ethyl-6-{4-[4-hydroxy-2-methoxy-5-(oxolan-3-yl)pyridine-3-carbonyl]piperazin-1-yl}-2-(2-methoxypyridin-4-yl)-7-oxo-2H,4H,7H-[1,2,3]triazolo[4,5-b]pyridin-4-yl)-N-[3-(propan-2-yl)bicyclo[1.1.1]pentan-1-yl]acetamide] | 500 to 2000 | 5 to 50 |  |
| CCc1c(N2CCN(C(=O)c3c(O)cncc3OC)CC2)c(=O)c2nn(-c3ccnc(OC)c3)nc2n1CC(=O)NC12CC(C(C)C)(C1)C2 [Compound I-37, 2-{5-ethyl-6-[4-(3-hydroxy-5-methoxypyridine-4-carbonyl)piperazin-1-yl]-2-(2-methoxypyridin-4-yl)-7-oxo-2H,4H,7H-[1,2,3]triazolo[4,5-b]pyridin-4-yl}-N-[3-(propan-2-yl)bicyclo[1.1.1]pentan-1-yl]acetamide] | 500 to 2000 | 5 to 50 |  |
| CCc1c(N2CCN(C(=O)c3ncnc(C)c3O)CC2)c(=O)c2nn(-c3ccnc(OC)c3)nc2n1CC(=O)NC12CC(C(F)(F)F)(C1)C2 [Compound I-151, 2-{5-ethyl-6-[4-(5-hydroxy-6-methylpyrimidine-4-carbonyl)piperazin-1-yl]-2-(2-methoxypyridin-4-yl)-7-oxo-2H,4H,7H-[1,2,3]triazolo[4,5-b]pyridin-4-yl}-N-[3-(trifluoromethyl)bicyclo[1.1.1]pentan-1-yl]acetamide] | 500 to 2000 | 5 to 50 |  |
| CCc1c(N2CCN(C(=O)c3ncnc(C)c3O)[C@H]3CC[C@@H]32)c(=O)c2nn(-c3ccnc(OC)c3)nc2n1CC(=O)NC12CC(C(F)(F)F)(C1)C2 [Compound I-54, 2-{5-ethyl-6-[(1S,6S)-5-(5-hydroxy-6-methylpyrimidine-4-carbonyl)-2,5-diazabicyclo[4.2.0]octan-2-yl]-2-(2-methoxypyridin-4-yl)-7-oxo-2H,4H,7H-[1,2,3]triazolo[4,5-b]pyridin-4-yl}-N-[3-(trifluoromethyl)bicyclo[1.1.1]pentan-1-yl]acetamide] |  | 5 to 50 | ≤ 500 |
| CCc1c(N2CCN(C(=O)c3cccnc3OC)[C@H]3CC[C@@H]32)c(=O)c2nn(C3=CCOCC3)nc2n1CC(=O)Nc1ccc(C(F)F)cc1F [Compound I-211, N-[4-(difluoromethyl)-2-fluorophenyl]-2-[2-(3,6-dihydro-2H-pyran-4-yl)-5-ethyl-6-[(1S,6S)-5-(2-methoxypyridine-3-carbonyl)-2,5-diazabicyclo[4.2.0]octan-2-yl]-7-oxo-2H,4H,7H-[1,2,3]triazolo[4,5-b]pyridin-4-yl]acetamide] | ≤ 500 | ≤ 5 |  |
| CCc1c(N2CCN(C(=O)c3ncnc(C)c3O)[C@H]3CC[C@@H]32)c(=O)c2nn(-c3ccnc(OC)c3)nc2n1CC(=O)NC1CCC2(CC1)CC2(F)F (stereo partly drawn) [Compound I-67, N-{1,1-difluorospiro[2.5]octan-6-yl}-2-{5-ethyl-6-[(1S,6S)-5-(5-hydroxy-6-methylpyrimidine-4-carbonyl)-2,5-diazabicyclo[4.2.0]octan-2-yl]-2-(2-methoxypyridin-4-yl)-7-oxo-2H,4H,7H-[1,2,3]triazolo[4,5-b]pyridin-4-yl}acetamide] | > 5000 | 5 to 50 |  |
| CCc1c(N2CCN(C(=O)c3ncnc(C)c3O)[C@H]3CC[C@@H]32)c(=O)c2nn(-c3ccnc(C)c3)nc2n1CC(=O)Nc1ccc(C(F)(F)F)cc1Cl [Compound I-96, N-[2-chloro-4-(trifluoromethyl)phenyl]-2-{5-ethyl-6-[(1S,6S)-5-(5-hydroxy-6-methylpyrimidine-4-carbonyl)-2,5-diazabicyclo[4.2.0]octan-2-yl]-2-(2-methylpyridin-4-yl)-7-oxo-2H,4H,7H-[1,2,3]triazolo[4,5-b]pyridin-4-yl}acetamide] |  | ≤ 5 | ≤ 500 |
| CCc1c(N2CCN(C(=O)c3ncnc(C)c3O)[C@H]3CC[C@@H]32)c(=O)c2nn(C3CC3)nc2n1CC(=O)NC12CC(C3CC3)(C1)C2 [Compound I-32, 2-{2-cyclopropyl-5-ethyl-6-[(1S,6S)-5-(5-hydroxy-6-methylpyrimidine-4-carbonyl)-2,5-diazabicyclo[4.2.0]octan-2-yl]-7-oxo-2H,4H,7H-[1,2,3]triazolo[4,5-b]pyridin-4-yl}-N-{3-cyclopropylbicyclo[1.1.1]pentan-1-yl}acetamide] | 500 to 2000 | 5 to 50 |  |
| CCc1c(N2CCN(C(=O)c3ncnc(C)c3O)[C@H]3CC[C@@H]32)c(=O)c2nn(-c3ccnc(OC)c3)nc2n1CC(=O)NC1CC2(CCCC2)C1 [Compound I-89, 2-{5-ethyl-6-[(1S,6S)-5-(5-hydroxy-6-methylpyrimidine-4-carbonyl)-2,5-diazabicyclo[4.2.0]octan-2-yl]-2-(2-methoxypyridin-4-yl)-7-oxo-2H,4H,7H-[1,2,3]triazolo[4,5-b]pyridin-4-yl}-N-{spiro[3.4]octan-2-yl}acetamide] | ≤ 500 | 5 to 50 |  |
| CCc1c(N2CCN(C(=O)c3c(OC)ncc(C)c3O)[C@H]3CC[C@@H]32)c(=O)c2nn(-c3ccnc(C)c3)nc2n1CC(=O)NC12CC(C(C)C)(C1)C2 [Compound I-94, 2-{5-ethyl-6-[(1S,6S)-5-(4-hydroxy-2-methoxy-5-methylpyridine-3-carbonyl)-2,5-diazabicyclo[4.2.0]octan-2-yl]-2-(2-methylpyridin-4-yl)-7-oxo-2H,4H,7H-[1,2,3]triazolo[4,5-b]pyridin-4-yl}-N-[3-(propan-2-yl)bicyclo[1.1.1]pentan-1-yl]acetamide] | ≤ 500 | 5 to 50 |  |
| CCc1c(N2CCN(C(=O)c3ncnc(C)c3O)[C@H]3CC[C@@H]32)c(=O)c2nn(-c3ccnc(OC)c3)nc2n1CC(=O)NC12CC(C(C)(F)F)(C1)C2 [Compound I-27, N-(3-(1,1-difluoroethyl)bicyclo[1.1.1]pentan-1-yl)-2-(5-ethyl-6-((1S,6S)-5-(5-hydroxy-6-methylpyrimidine-4-carbonyl)-2,5-diazabicyclo[4.2.0]octan-2-yl)-2-(2-methoxypyridin-4-yl)-7-oxo-2,7-dihydro-4H-[1,2,3]triazolo[4,5-b]pyridin-4-yl)acetamide] | ≤ 500 | 5 to 50 |  |
| CCc1c(N2CCN(C(=O)c3ncnc(C)c3O)[C@H]3CC[C@@H]32)c(=O)c2nn(-c3ccnc(OC)c3)nc2n1CC(=O)NC12CC(OC(F)(F)F)(C1)C2 [Compound I-29, 2-(5-ethyl-6-((1S,6S)-5-(5-hydroxy-6-methylpyrimidine-4-carbonyl)-2,5-diazabicyclo[4.2.0]octan-2-yl)-2-(2-methoxypyridin-4-yl)-7-oxo-2,7-dihydro-4H-[1,2,3]triazolo[4,5-b]pyridin-4-yl)-N-(3-(trifluoromethoxy)bicyclo[1.1.1]pentan-1-yl)acetamide] | ≤ 500 | 5 to 50 |  |
